pEC50, pKd: −log10 of the molar value.
What was measured:
Type in all cases: functional, cell-based
[1] = target: T1, Beta-2 adrenergic receptor (Homo sapiens, UniProt P07550); assay: Agonist activity at human beta2-adrenergic receptor expressed in CHO-K1 cells co-expressing CRE-SPAP reporter gene assessed as CRE-SPAP production measured after 5 hrs incubation; conditions: for pEC50: read-out: EC50
[2] = target: T1, Beta-2 adrenergic receptor; assay: Antagonist activity at human beta2-adrenergic receptor expressed in CHO-K1 cells co-expressing CRE-SPAP reporter gene assessed as inhibition of fenoterol-induced CRE-SPAP production by measuring rightward shift of the fenoterol concentration response curve measured after 5 hrs incubation; conditions: for Kd: read-out: pKd (converted); for pKd: read-out: Kd
[3] = target: T2, Beta-3 adrenergic receptor (Homo sapiens, UniProt P13945); assay: Agonist activity at human beta3-adrenergic receptor expressed in CHO-K1 cells co-expressing CRE-SPAP reporter gene assessed as CRE-SPAP production measured after 5 hrs incubation; conditions: for EC50: read-out: pEC50 (converted)
[4] = target: T2, Beta-3 adrenergic receptor; assay: Antagonist activity at human beta3-adrenergic receptor expressed in CHO-K1 cells co-expressing CRE-SPAP reporter gene assessed as inhibition of fenoterol-induced CRE-SPAP production by measuring rightward shift of the fenoterol concentration response curve measured after 5 hrs incubation; conditions: for Kd: read-out: pKd (converted); for pKd: read-out: Kd
[5] = target: T3, Beta-1 adrenergic receptor (Homo sapiens, UniProt P08588); assay: Antagonist activity at human beta1-adrenergic receptor expressed in CHO-K1 cells co-expressing CRE-SPAP reporter gene assessed as inhibition of fenoterol-induced CRE-SPAP production by measuring rightward shift of the fenoterol concentration response curve measured after 5 hrs incubation; conditions: for Kd: read-out: pKd (converted); for pKd: read-out: Kd
[6] = target: T3, Beta-1 adrenergic receptor; assay: Agonist activity at human beta1-adrenergic receptor expressed in CHO-K1 cells co-expressing CRE-SPAP reporter gene assessed as CRE-SPAP production measured after 5 hrs incubation

T3 sequence (P08588 whole entry): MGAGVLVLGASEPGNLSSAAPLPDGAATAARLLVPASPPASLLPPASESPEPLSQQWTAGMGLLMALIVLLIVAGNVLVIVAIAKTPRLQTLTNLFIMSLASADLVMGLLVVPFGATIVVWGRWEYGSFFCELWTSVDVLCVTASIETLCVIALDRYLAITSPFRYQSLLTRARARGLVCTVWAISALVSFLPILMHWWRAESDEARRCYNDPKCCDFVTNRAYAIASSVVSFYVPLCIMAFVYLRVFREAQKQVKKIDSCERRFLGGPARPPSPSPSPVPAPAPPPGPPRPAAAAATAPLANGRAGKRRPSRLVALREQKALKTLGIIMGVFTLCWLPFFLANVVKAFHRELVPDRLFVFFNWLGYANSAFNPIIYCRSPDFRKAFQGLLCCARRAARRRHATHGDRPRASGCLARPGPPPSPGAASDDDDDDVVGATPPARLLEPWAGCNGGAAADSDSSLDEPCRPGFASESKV
T2 sequence (P13945 whole entry): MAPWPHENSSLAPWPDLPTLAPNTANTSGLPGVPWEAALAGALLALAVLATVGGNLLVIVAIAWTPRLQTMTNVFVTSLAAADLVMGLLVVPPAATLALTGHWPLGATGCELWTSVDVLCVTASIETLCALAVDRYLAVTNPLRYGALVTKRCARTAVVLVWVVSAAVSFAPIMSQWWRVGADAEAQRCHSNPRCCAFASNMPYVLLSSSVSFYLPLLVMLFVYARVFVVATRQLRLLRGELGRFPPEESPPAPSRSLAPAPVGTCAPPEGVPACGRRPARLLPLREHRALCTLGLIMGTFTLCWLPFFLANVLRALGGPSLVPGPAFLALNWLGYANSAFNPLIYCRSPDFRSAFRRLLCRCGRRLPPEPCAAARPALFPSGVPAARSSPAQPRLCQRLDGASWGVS
T1 sequence (P07550 whole entry): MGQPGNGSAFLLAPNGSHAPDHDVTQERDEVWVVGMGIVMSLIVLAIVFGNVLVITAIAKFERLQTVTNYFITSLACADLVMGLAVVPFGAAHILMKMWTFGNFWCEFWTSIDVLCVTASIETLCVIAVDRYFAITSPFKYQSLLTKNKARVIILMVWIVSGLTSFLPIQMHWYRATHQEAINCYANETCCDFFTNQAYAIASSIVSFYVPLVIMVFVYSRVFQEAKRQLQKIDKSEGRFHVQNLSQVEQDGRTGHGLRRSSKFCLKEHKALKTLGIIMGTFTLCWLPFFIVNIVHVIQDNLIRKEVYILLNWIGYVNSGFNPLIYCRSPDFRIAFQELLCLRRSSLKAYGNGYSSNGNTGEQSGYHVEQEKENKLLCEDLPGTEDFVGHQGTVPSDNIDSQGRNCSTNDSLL

| Structure (SMILES) | Kd [2] | Kd [5] | pKd [4] | further results |
| --- | --- | --- | --- | --- |
| CCc1ccccc1OC[C@@H](O)CN[C@H]1CCCc2ccccc21 | 0.0038 µM | – | – | EC50 ([1]; read-out: pEC50 (converted)): 0.00871 µM; EC50 [3]: 0.191 µM; Kd [4]: 0.0692 µM |
| CC(=O)NCc1cccc(OC[C@@H](O)CNCCc2ccc(NS(=O)(=O)c3ccccc3)cc2)c1 | 0.0741 µM | 0.339 µM | – | pEC50 [1]: 5.00; EC50 [3]: 0.00447 µM; Kd [4]: 0.00676 µM; pEC50 [6]: 6.42 |
| COC(=O)[C@H](N)Cc1ccc(OC[C@@H](O)CNCC2COc3ccccc3O2)cc1 (stereo partly drawn) | – | – | < 5.00 | – |
| CCc1ccccc1OC[C@@H](O)CNCCC(c1ccccc1)c1ccccc1 | – | 0.135 µM | – | pEC50 [6]: 6.51 |
| CC1(C)CC(=O)c2ccc(OC[C@H](O)CNCCCN3C(=O)c4ccccc4C3=O)cc2O1 | – | – | – | pKd [5]: < 5.00 |
| CC1(C)CC(=O)c2ccc(OC[C@@H](O)CNCCCN3C(=O)c4ccccc4C3=O)cc2O1 | – | – | – | pKd [5]: < 5.00 |
| O[C@@H](CNCC1COc2ccccc2O1)COc1ccnc2ccccc12 (stereo partly drawn) | – | 6.03 µM | – | – |
| O[C@@H](CNCC1COc2ccccc2O1)COc1ccc2c(c1)OCO2 (stereo partly drawn) | 1.55 µM | 1.58 µM | – | pEC50 [6]: 6.50 |
| COc1ccc(S(=O)(=O)NCCCCNC[C@H](O)COc2ccc3c(c2)OC(C)(C)CC3=O)cc1 | – | – | < 5.00 | pKd [5]: < 5.00 |
| CS(=O)(=O)c1ccc(CCNC[C@H](O)COc2ccc3ccc(=O)oc3c2)cc1 | – | – | < 5.00 | pKd [2]: < 5.00 |
| O=c1ccc2ccc(OC[C@@H](O)CNCC3COc4ccccc4O3)cc2o1 (stereo partly drawn) | 6.61 µM | – | – | – |
| O=C1COc2cc(OC[C@@H](O)CNCC3COc4ccccc4O3)ccc21 (stereo partly drawn) | 3.63 µM | – | – | – |
| CC1(C)CC(=O)c2ccc(OC[C@@H](O)CNCCCc3ccccc3)cc2O1 | – | – | < 5.00 | – |
| O[C@@H](CNCC1COc2ccccc2O1)COc1cccc2cnccc12 (stereo partly drawn) | 0.107 µM | 0.102 µM | – | pEC50 [1]: 5.00; pEC50 ([3]; read-out: EC50): 5.00; Kd [4]: 1.35 µM; pEC50 [6]: 7.13 |
| O=c1ccc2ccc(OC[C@@H](O)CNCCc3ccc4c(c3)OCO4)cc2o1 | – | 5.62 µM | < 5.00 | – |
| CC1(C)CC(=O)c2ccc(OC[C@H](O)CNCCCc3ccccc3)cc2O1 | – | – | < 5.00 | – |
| COc1ccc(S(=O)(=O)NCCCCCCNC[C@H](O)COc2ccc3ccc(=O)oc3c2)cc1 | – | – | < 5.00 | – |
| CC(=O)Nc1ccc(CCNC[C@H](O)COc2ccc3ccc(=O)oc3c2)cc1 | – | – | < 5.00 | pKd [2]: < 5.00 |

Reference: ChEMBL document CHEMBL5352468, “Rational design, synthesis, and pharmacological evaluation of a cohort of novel beta-adrenergic receptors ligands enables an assessment of structure-activity relationships” (Eur J Med Chem, 2023)
